PMC11678245, “The Molecular Basis of the Intrinsic and Acquired Resistance to Azole Antifungals in Aspergillus fumigatus” (Journal of Fungi, 2024)
“Also recorded” adds a separate entry of the source.

Legend:
[1] = target: T1, AfCYP51B-6×His (Aspergillus fumigatus, UniProt E9QY26); assay: Type I binding of substrates (difference spectra); settings: for ΔAmax (type I binding): AfCYP51B-6×His 5 μM, Michaelis–Menten equation
T1 sequence (E9QY26 1-524): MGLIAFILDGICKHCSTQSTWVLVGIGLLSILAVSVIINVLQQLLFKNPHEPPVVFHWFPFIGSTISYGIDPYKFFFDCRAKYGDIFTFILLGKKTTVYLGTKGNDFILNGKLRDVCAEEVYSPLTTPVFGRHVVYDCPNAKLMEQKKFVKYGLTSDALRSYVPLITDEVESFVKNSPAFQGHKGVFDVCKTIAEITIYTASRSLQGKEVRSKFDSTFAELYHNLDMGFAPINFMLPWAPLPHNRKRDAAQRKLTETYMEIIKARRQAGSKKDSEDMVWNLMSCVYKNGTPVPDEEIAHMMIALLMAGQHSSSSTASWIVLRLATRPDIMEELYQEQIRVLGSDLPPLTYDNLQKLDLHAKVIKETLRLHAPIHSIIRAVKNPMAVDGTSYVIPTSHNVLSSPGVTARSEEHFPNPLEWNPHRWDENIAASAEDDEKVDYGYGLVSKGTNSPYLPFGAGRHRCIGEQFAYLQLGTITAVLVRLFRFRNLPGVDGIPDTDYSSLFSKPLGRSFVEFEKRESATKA
Description: (§1) The concentration of AfCYP51A and AfCYP51B, purified using Ni-NTA affinity chromatography and used for the spectrophotometric type I and type II binding assays, was calculated using an extinction co-efficient of λ417nm = 117 mM^−1 cm^−1 applied to the absolute absorption spectrum of the preparations. In addition, the amount of “active” cytochrome P450 enzyme was determined using the carbon monoxide (CO) binding spectra of these preparations.
(§2) Type I binding of substrates lanosterol and eburicol in the active site of the Ni-NTA affinity-purified AfCYP51A and AfCYP51B enzymes was assessed using the method of Warrilow et al.. Titrations of 5 μM AfCYP51-6×His protein with lanosterol or eburicol (1 to 250 μM) were measured using a Cary 300 UV–Visible Spectrophotometer (Agilent Technologies, Santa Clara, CA, USA). Substrate saturation curves were constructed by plotting the maximal ∆Apeak−trough obtained between 350 and 500 nm, allowing for a change in the reaction volume during the titration. The substrate binding constant (KS) was calculated by nonlinear regression (Levenberg–Marquardt algorithm) applied to the Michaelis–Menten equation or the Hill equation. GraphPad Prism 9.2.0 software was used to identify the best fit for the data.

[2] = target: AfCYP51A-6×His (Aspergillus fumigatus, UniProt Q4WNT5); assay: Type I binding of substrates (difference spectra); parameters: Full-length codon-optimised AfCYP51A-6×His and AfCYP51B-6×His were constitutively co-expressed; made in house; settings: AfCYP51A-6×His 5 µM, concentrations up to 300 μM
AfCYP51A-6×His, sequence (Q4WNT5 whole entry): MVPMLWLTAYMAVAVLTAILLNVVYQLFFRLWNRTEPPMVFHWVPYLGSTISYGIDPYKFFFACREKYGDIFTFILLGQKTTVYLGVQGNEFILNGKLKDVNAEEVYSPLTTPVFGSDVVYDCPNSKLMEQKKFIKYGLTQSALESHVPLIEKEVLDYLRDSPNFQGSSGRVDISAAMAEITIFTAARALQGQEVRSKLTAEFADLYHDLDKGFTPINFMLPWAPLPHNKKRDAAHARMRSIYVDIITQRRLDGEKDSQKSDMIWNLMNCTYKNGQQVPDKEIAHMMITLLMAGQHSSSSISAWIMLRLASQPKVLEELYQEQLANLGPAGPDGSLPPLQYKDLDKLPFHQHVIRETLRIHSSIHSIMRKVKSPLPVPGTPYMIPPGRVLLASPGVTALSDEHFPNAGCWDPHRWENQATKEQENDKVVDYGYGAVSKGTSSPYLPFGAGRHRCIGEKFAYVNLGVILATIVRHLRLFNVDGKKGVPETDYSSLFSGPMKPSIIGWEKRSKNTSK
Description: as §1
as §2, with “Titrations of 5 μM AfCYP51-6×His protein with lanosterol or eburicol (1 to 250 μM) were measured using a Cary 300 UV–Visible Spectrophotometer (Agilent Technologies, Santa Clara, CA, USA).” left out

## C=C(CC[C@@H](C)[C@H]1CC[C@@]2(C)C3=C(CC[C@]12C)[C@@]1(C)CC[C@H](O)C(C)(C)C1CC3)C(C)C (stereo partly shown) [Eburicol, eburicol]
[1]
  Kd: 71 µM
  ΔAmax (type I binding): 0.161
[1]; AfCYP51B-6×His
  type I binding spectrum peak: 387 nm
  type I binding spectrum trough: 422 nm
[1]; listed as eburicol
  ΔAmax (type I binding): 0.16
[1]; ratio of Ks values
  affinity of AfCYP51B for eburicol versus lanosterol: at least 6 fold
[2]
  type I binding response: did not give the expected type I binding response; also recorded: did not give a type I binding response
